Measured values as given in patent US11186605B2 (KYOWA HAKKO BIO CO., LTD., priority 2016, dated 2021).
Where two headings read alike, the source gives them in different places.

Tests used:
[1] = crystal powder, 1.18 mm sieve, 100 mL container, average of three
Description: Here, the “loose specific volume” refers to a value which is obtained by dividing a volume occupied by a powder by a mass when the powder is filled in a container and the mass of the powder is measured.
The loose specific volume can be measured using Multi Tester MT-1001T (manufactured by Seishin Enterprise Co., Ltd.) according to the accompanying manual under the following conditions based on the 17th revision, Pharmacopoeia of Japan.
[Measurement Conditions for Loose Specific Volume]
(§1) Apparatus for use: multi-tester MT-1001T type (manufactured by Seishin Enterprise Co., Ltd.)
(§2) Vibration range: 0.7 mm to 0.8 mm
Specific example of method of measuring loose specific volume: A 100 mL cylindrical container made of stainless steel is filled while the crystal is dropped via a 1.18 mm sieve vibrated at a range of 0.7 mm to 0.8 mm. Excess powder is carefully rubbed off from the top surface of the container, and the mass of the powder is measured by subtracting the mass of an empty measurement container measured in advance. The measurement is independently performed three times to determine an average value.

[2] = crystal powder, 400 taps at 1 tap/sec, 100 mL container, average of three
Description: Here, the “dense specific volume” refers to a value which is obtained by dividing a volume occupied by a powder by a mass when the powder is filled in a container, a certain impact is applied to the container, and then the mass of the powder is measured.
The dense specific volume can be measured, for example, using Multi Tester MT-1001T (manufactured by Seishin Enterprise Co., Ltd.) according to the accompanying manual under the following conditions based on the 17th revision, Pharmacopoeia of Japan.
[Measurement Conditions for Dense Specific Volume]
as §1, §2
Specific example of method of measuring dense specific volume: A 100 mL cylindrical container made of stainless steel equipped with an auxiliary cylinder is filled while the crystal is dropped via a 1.18 mm sieve vibrated at a range of 0.7 mm to 0.8 mm. […] The measurement is independently performed three times to determine an average value.

[3] = crystal powder, mean of three sites
Text: Here, the “angle of repose” refers to an angle formed by a horizontal plane and a generating line of a cone formed with a powder when the powder is allowed to gently fall onto the horizontal plane through a kind of a funnel.
The angle of repose can be measured using Multi Tester MT-1001T (manufactured by Seishin Enterprise Co., Ltd.) according to the accompanying manual under the following conditions.
[Measurement Conditions for Angle of Repose]
as §1, §2
Specific example of method of measuring angle of repose: The crystal is piled on an repose angle table (component number: MT-1028) while dropped via a 1.18 mm sieve vibrated at a range of 0.7 mm to 0.8 mm. The repose angle table is rotated without giving vibration, angles are read at three sites, and an arithmetic mean thereof is determined to be the angle of repose.

[4] = crystal powder, after three impacts, mean of three sites
Text: Here, the “angle of rupture” refers to an angle formed by a horizontal plane and a generating line of a cone which is formed when a certain impact is applied indirectly to a cone formed with a powder when the powder is allowed to gently fall onto the horizontal plane through a kind of a funnel.
The angle of rupture can be measured using Multi Tester MT-1001T (manufactured by Seishin Enterprise Co., Ltd.) according to the accompanying manual by the following method.
A weight attached to the bottom of a repose angle table unit (component number: MT-1028) is slowly lifted under a tapping table and allowed to fall after the measurement of the angle of repose. This operation is repeated three times. In the same manner as the method of measuring the angle of repose, angles are read at three sites, and the arithmetic mean thereof is determined to be the angle of rupture.

| Substance | Loose specific volume [1] [mg/L] | Dense specific volume [2] [mg/L] | Angle of repose [3] [degree] | Angle of rupture [4] [degree] | also measured |
| --- | --- | --- | --- | --- | --- |
| cytidine diphosphate choline | – | – | – | – | concentration of the cytidine diphosphate choline in filtrate (solubility) (ethanol concentration 50% by volume, 30° C.): 282000 µg/mL; concentration of the cytidine diphosphate choline in filtrate (solubility) (ethanol concentration 50% by volume, 35° C.): 286000 µg/mL; concentration of the cytidine diphosphate choline in filtrate (solubility) (ethanol concentration 50% by volume, 40° C.): 317000 µg/mL; concentration of the cytidine diphosphate choline in filtrate (solubility) (ethanol concentration 66% by volume, 30° C.): 27600 µg/mL; concentration of the cytidine diphosphate choline in filtrate (solubility) (ethanol concentration 66% by volume, 35° C.): 31600 µg/mL; concentration of the cytidine diphosphate choline in filtrate (solubility) (ethanol concentration 66% by volume, 40° C.): 54200 µg/mL; concentration of the cytidine diphosphate choline in filtrate (solubility) (ethanol concentration 71% by volume, 30° C.): 8490 µg/mL; concentration of the cytidine diphosphate choline in filtrate (solubility) (ethanol concentration 71% by volume, 35° C.): 9700 µg/mL; concentration of the cytidine diphosphate choline in filtrate (solubility) (ethanol concentration 71% by volume, 40° C.): 11100 µg/mL; concentration of the cytidine diphosphate choline in filtrate (solubility) (ethanol concentration 75% by volume, 30° C.): 3230 µg/mL; concentration of the cytidine diphosphate choline in filtrate (solubility) (ethanol concentration 75% by volume, 35° C.): 3650 µg/mL; concentration of the cytidine diphosphate choline in filtrate (solubility) (ethanol concentration 75% by volume, 40° C.): 4040 µg/mL; concentration of the cytidine diphosphate choline in filtrate (solubility) (ethanol concentration 78% by volume, 30° C.): 1400 µg/mL; concentration of the cytidine diphosphate choline in filtrate (solubility) (ethanol concentration 78% by volume, 35° C.): 1680 µg/mL; concentration of the cytidine diphosphate choline in filtrate (solubility) (ethanol concentration 78% by volume, 40° C.): 1690 µg/mL; concentration of the cytidine diphosphate choline in filtrate (solubility) (ethanol concentration 80% by volume, 30° C.): 760 µg/mL; concentration of the cytidine diphosphate choline in filtrate (solubility) (ethanol concentration 80% by volume, 35° C.): 840 µg/mL; concentration of the cytidine diphosphate choline in filtrate (solubility) (ethanol concentration 80% by volume, 40° C.): 920 µg/mL |
| cytidine diphosphate choline [Comparative Example 1] | 2.33 | 1.49 | 49.6 | 40.1 | – |
| cytidine diphosphate choline [Comparative Example 3] | 4.19 | 2.19 | 57.4 | 50.8 | – |
| cytidine diphosphate choline [Comparative Example 4] | 5.74 | 2.93 | 48.7 | 46.4 | – |
| cytidine diphosphate choline [Example 1] | 3.42 | 2.13 | 46.9 | 39.6 | – |
| cytidine diphosphate choline [Example 2] | 2.55 | 1.82 | 47.2 | 38.7 | – |
| cytidine diphosphate choline [Example 3] | 3.58 | 2.19 | 52.8 | 47.1 | – |
| cytidine diphosphate choline [Example 4] | 2.00 | 1.55 | 43.4 | 41.6 | – |
| cytidine diphosphate choline [Product of company A] | 2.81 | 1.67 | 56.6 | 48.7 | – |
